As usually defined, the IC50 is the concentration that inhibits the measured activity by half. Read a high IC50 as lower potency.

The target in this experiment is T1, human steroid sulfatase (Homo sapiens, UniProt P08842).
T1 construct: Human placenta is obtained freshly after delivery; from tissue; host or cells: human placenta (microsomes, Triton X-100 extract, column-purified)
T1 sequence (P08842 22-583): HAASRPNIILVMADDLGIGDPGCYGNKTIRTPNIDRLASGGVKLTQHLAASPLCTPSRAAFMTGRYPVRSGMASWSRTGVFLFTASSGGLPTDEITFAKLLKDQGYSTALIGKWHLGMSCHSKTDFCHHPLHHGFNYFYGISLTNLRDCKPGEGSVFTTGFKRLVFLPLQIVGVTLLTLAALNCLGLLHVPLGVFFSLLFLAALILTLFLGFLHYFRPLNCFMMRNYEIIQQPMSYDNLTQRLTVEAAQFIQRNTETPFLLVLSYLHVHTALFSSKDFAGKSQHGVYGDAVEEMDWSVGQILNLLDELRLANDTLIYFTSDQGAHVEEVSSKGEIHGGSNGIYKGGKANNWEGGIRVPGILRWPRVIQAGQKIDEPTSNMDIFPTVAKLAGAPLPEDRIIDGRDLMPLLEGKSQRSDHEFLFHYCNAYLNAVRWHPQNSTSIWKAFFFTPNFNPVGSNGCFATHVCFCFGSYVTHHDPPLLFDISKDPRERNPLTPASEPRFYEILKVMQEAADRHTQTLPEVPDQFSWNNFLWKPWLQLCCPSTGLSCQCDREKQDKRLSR
The experiment can be described thus: Assay of Human Steroid Sulfatase (purified from placenta, 4-methylumbelliferyl sulfate cleavage, fluorescence). Type of experiment: biochemical. As to conditions: reference compound, determined in parallel to test compounds; substrate 4-methylumbelliferyl sulfate, 37° C., 1 hour. As to the method: For storage, the material is frozen at −70° C.
The activity is recovered in the flow-through.
Plates are incubated at 37° C. for 1 hour.
Relative IC50 values are defined as follows: […]

`CC12CCC3c4ccc(OS(N)(=O)=O)cc4CCC3C1CCC2=O` (stereo not shown) [estrone sulfamate, Estrone sulfamate] displayed an IC50 of roughly 60 nM.

The values are drawn from patent publication US7482462B2, “Acylsulfonamides as inhibitors of steroid sulfatase” (priority 2001, dated 2009).
